Experimental data taken from patent US20110178396A1, “Nicotinamide Derivatives” (CRC FOR BIOMEDICAL IMAGING DEVELOPMENT LTD., priority 2008, published 2011).

Tested on: B16F0 melanoma tumour
Assay: Biodistribution in B16 melanoma bearing mice
Type: in vivo, C57BL/6J mice
Details: C57BL/6J mice; for Organ distribution Intestine / Organ distribution Liver / Organ distribution Spleen / Organ distribution Stomach / Organ distribution Thyroid / Organ distribution Tumour: B16F0 tumour, mean ± S.D.; for Organ distribution Intestine / Organ distribution Liver / Organ distribution Spleen / Organ distribution Stomach / Organ distribution Thyroid / Organ distribution Tumour / Uptake Lung / uptake BLOOD / uptake BRAIN / uptake HEART / uptake KIDNEY / uptake LIVER / uptake TUMOUR: n = 5; for tumour standardized uptake value (SUVt) / Uptake Lung / uptake BLOOD / uptake BRAIN / uptake HEART / uptake KIDNEY / uptake LIVER / uptake TUMOUR: B16 tumour; for Uptake Lung / uptake BLOOD / uptake BRAIN / uptake HEART / uptake KIDNEY / uptake LIVER / uptake TUMOUR: mean ± SD
Method: Animal experiments were performed in compliance with the NHMRC Australian Code of Practice for the care and use of animals for scientific purposes. Female C57BL/6J black and BALB/c nude albino mice of 5 weeks age were obtained from the Animal Resources Centre, Western Australia. B16F0 murine melanoma cells were originally obtained from European Collection of Cell Cultures (UK) and A375 human amelanotic melanoma cells were originally obtained from American Type Culture Collection (USA). Before transplantation, B16F0 and A375 melanoma cells were maintained as a monolayer in RPMI culture medium supplemented with 10% foetal calf serum and antibiotics and passaged with trypsinisation. Early passages were frozen and stored in liquid nitrogen. Cells were passaged to P=10 and then discarded. Frozen aliquots were grown in a monolayer culture to between 80-95% confluence and for transplantation were trypsinised and washed with Ca^2+ and Mg^2+ free phosphate buffered saline (PBS). For inoculation, B16F0 melanoma cells were resuspended in Ca^2+ and Mg^2+ free PBS at 3 or 5×10^6 viable cells per ml and 0.1 ml was subcutaneously injected at the left flank of 6-7 weeks old C57BL/6J mice. Eleven days later, tumours could be palpated in >98% of inoculated animals. A375 human melanoma cells were resuspended at 1×10^7 viablecells per ml and 0.1 ml was injected subcutaneously at the left flank of 6 weeks old BALB/c nude mice and 25-26 days later tumours could be palpated with ˜60% of inoculated animals developing tumours.
Eleven days (B16F0 melanoma) and 25 days (A375 human melanoma) after tumour transplantation, the [^18F]nicotinamides (0.5-1.5 MBq, 100 μl) and [^123I]nicotinamide (0.37-0.74 MBq, 100 μl) derivatives were injected intravenously via the tail vein into mice (15-18 g). Time points of 1, 3, 6, 24, 48, 72 h after injection were chosen for determining the distribution of each compound in various organs and tissues for the iodine-123 labelled compounds and between 15 min and 6 hours (e.g. 15 min, 30 min, 1 h, 2 h, 4 h or 6 h) were chosen for the ^18F-labelled compounds. At defined times post injection, groups of mice (n=5) were weighed, sacrificed by CO2 administration followed by cervical dislocation and dissected. Selected organs were weighed and their radioactivity measured with a γ-counter. The remaining activity in the carcass was also determined in order to obtain the total activity in the mouse at defined time points. The fraction of injected activity (% ID) in the organ was calculated by comparison with suitable dilutions of the injected dose. Then, the radioactivity concentration in the organ (% ID/g) was found by dividing the % ID for each organ by the weight of the organ.

Organ distribution Intestine (1 h): 15 ± 2 % ID/organ | Organ distribution Liver (1 h): 1.8 ± 0.3 % ID/organ | Organ distribution Spleen (1 h): 0.16 ± 0.16 % ID/organ | Organ distribution Stomach (1 h): 2.0 ± 0.2 % ID/organ | Organ distribution Thyroid (1 h): 0.37 ± 0.07 % ID/organ | Organ distribution Tumour (1 h): 1.3 ± 0.3 % ID/organ | Organ distribution Intestine (3 h): 5 ± 2 % ID/organ | Organ distribution Liver (3 h): 0.82 ± 0.08 % ID/organ | Organ distribution Spleen (3 h): 0.06 ± 0.05 % ID/organ | Organ distribution Stomach (3 h): 1.3 ± 0.3 % ID/organ | Organ distribution Thyroid (3 h): 1.1 ± 0.3 % ID/organ | Organ distribution Tumour (3 h): 1.0 ± 0.4 % ID/organ | Organ distribution Intestine (6 h): 2.8 ± 0.4 % ID/organ | Organ distribution Spleen (6 h): 0.05 ± 0.04 % ID/organ | Organ distribution Stomach (6 h): 1.2 ± 0.2 % ID/organ | Organ distribution Thyroid (6 h): 1.8 ± 1.0 % ID/organ | Organ distribution Tumour (6 h): 1.1 ± 0.3 % ID/organ | Organ distribution Intestine (24 h): 0.10 ± 0.02 % ID/organ | Organ distribution Liver (24 h): 0.12 ± 0.01 % ID/organ | Organ distribution Spleen (24 h): 0.01 ± 0.03 % ID/organ | Organ distribution Stomach (24 h): 0.04 ± 0.01 % ID/organ | Organ distribution Thyroid (24 h): 1.0 ± 0.3 % ID/organ | Organ distribution Tumour (24 h): 0.7 ± 0.1 % ID/organ | Organ distribution Intestine (48 h): 0.06 ± 0.01 % ID/organ | Organ distribution Liver (48 h): 0.06 ± 0.01 % ID/organ | Organ distribution Spleen (48 h): 0.00 ± 0.00 % ID/organ | Organ distribution Stomach (48 h): 0.02 ± 0.01 % ID/organ | Organ distribution Thyroid (48 h): 1.4 ± 0.3 % ID/organ | Organ distribution Tumour (48 h): 0.7 ± 0.4 % ID/organ | Organ distribution Intestine (72 h): 0.04 ± 0.01 % ID/organ | Organ distribution Liver (72 h): 0.04 ± 0.01 % ID/organ | Organ distribution Spleen (72 h): 0.01 ± 0.01 % ID/organ | Organ distribution Stomach (72 h): 0.01 ± 0.01 % ID/organ | Organ distribution Thyroid (72 h): 1.0 ± 0.6 % ID/organ | Organ distribution Tumour (72 h): 0.3 ± 0.1 % ID/organ | tumour standardized uptake value (SUVt) (1 h): 3.7 ± 1.0 | Uptake Lung (1 h): 1.4 ± 0.2 % ID/g | uptake BLOOD (1 h): 1.21 ± 0.17 % ID/g | uptake BRAIN (1 h): 0.14 ± 0.02 % ID/g | uptake HEART (1 h): 0.8 ± 0.1 % ID/g | uptake KIDNEY (1 h): 1.8 ± 0.5 % ID/g | uptake LIVER (1 h): 1.9 ± 0.3 % ID/g | uptake TUMOUR (1 h): 7.8 ± 1.7 % ID/g | tumour standardized uptake value (SUVt) (3 h): 7.4 ± 1.6 | Uptake Lung (3 h): 0.75 ± 0.07 % ID/g | uptake BLOOD (3 h): 0.92 ± 0.09 % ID/g | uptake BRAIN (3 h): 0.07 ± 0.01 % ID/g | uptake HEART (3 h): 0.4 ± 0.04 % ID/g | uptake KIDNEY (3 h): 0.8 ± 0.1 % ID/g | uptake LIVER (3 h): 0.9 ± 0.1 % ID/g | uptake TUMOUR (3 h): 6.0 ± 0.4 % ID/g | tumour standardized uptake value (SUVt) (6 h): 12 ± 1 | Uptake Lung (6 h): 0.47 ± 0.11 % ID/g | uptake BLOOD (6 h): 0.58 ± 0.14 % ID/g | uptake BRAIN (6 h): 0.04 ± 0.01 % ID/g | uptake HEART (6 h): 0.26 ± 0.06 % ID/g | uptake KIDNEY (6 h): 0.5 ± 0.1 % ID/g | uptake LIVER (6 h): 0.6 ± 0.1 % ID/g | uptake TUMOUR (6 h): 5.9 ± 0.7 % ID/g | tumour standardized uptake value (SUVt) (24 h): 37 ± 9 | Uptake Lung (24 h): 0.03 ± 0.02 % ID/g | uptake BLOOD (24 h): 0.03 ± 0.01 % ID/g | uptake BRAIN (24 h): 0.01 % ID/g | uptake HEART (24 h): 0.04 ± 0.01 % ID/g | uptake KIDNEY (24 h): 0.03 ± 0.01 % ID/g | uptake LIVER (24 h): 0.12 ± 0.02 % ID/g | uptake TUMOUR (24 h): 3.2 ± 0.9 % ID/g | tumour standardized uptake value (SUVt) (48 h): 22 ± 5 | Uptake Lung (48 h): 0.04 ± 0.01 % ID/g | uptake BRAIN (48 h): 0.01 % ID/g | uptake HEART (48 h): 0.03 ± 0.01 % ID/g | uptake KIDNEY (48 h): 0.03 ± 0.01 % ID/g | uptake LIVER (48 h): 0.08 ± 0.02 % ID/g | uptake TUMOUR (48 h): 2.2 ± 0.4 % ID/g | tumour standardized uptake value (SUVt) (72 h): 18 ± 12 | Uptake Lung (72 h): 0.04 ± 0.04 % ID/g | uptake BLOOD (72 h): 0.02 ± 0.01 % ID/g | uptake BRAIN (72 h): 0.01 % ID/g | uptake HEART (72 h): 0.06 ± 0.02 % ID/g | uptake KIDNEY (72 h): 0.02 ± 0.02 % ID/g | uptake LIVER (72 h): 0.04 ± 0.01 % ID/g | uptake TUMOUR (72 h): 1.4 ± 0.3 % ID/g
SMILES: CCN(CC)CCNC(=O)c1cncc(I)c1 [[^123I]11, N-(2-(diethylamino)ethyl)-5-iodonicotinamide]
